The subject of assay [1] is hand-foot syndrome caused by capecitabine in Balb/c mice. Nature of the assay: Mouse model of hand-foot syndrome caused by capecitabine, gel application or oral administration. The class given is in vivo. Conditions: capecitabine 1000 mg/kg once daily; for Control Rate Forepaws / Control Rate Hindpaws: 15 days; for inhibition in vivo at 300 mg/kg / inhibition in vivo at 250 mg/kg: Mus musculus, 192 h, 8 days; for inhibition in vivo at 300 mg/kg: oral 300 mpk twice per day; for inhibition in vivo at 250 mg/kg: oral 250 mpk twice per day. As to the method:
A mouse animal model was established. 6-week aged male Balb/c mice were administered with capecitabine by daily gavage. After a few days, mice's paws developed hand-foot syndrome symptoms (similar to the results of the rat model, such as, in FIG. 13). Similar to the human body, mice developed hand-foot syndrome in the forepaws and hind paws after oral administration of capecitabine. The causes of the two are the same, and the disorder is also very similar. Therefore, mice are very good animal models for simulating the hand-foot syndrome caused by capecitabine.
After Balb/c mice were fed and adapted for one week (about 20 g), the mice were divided into groups, with 10 mice in each group. Then, the mice were subject to gavage administration. Capecitabine was dissolved in normal saline with pH=8, and the gavage dose was not greater than 0.3 mL at each time. After gavage, the blank gel was applied to the forepaws and the hind paws (about 4*0.5 cm*0.5 cm) in group of blank gel, and gels containing different drugs were applied to the forepaws and the hind paws (about 4*0.5 cm*0.5 cm) in group of administration. After application, the mice were fixed in Elizabethan collar for 4 hours. After 4 hours, the mice were released, wiped with clean water to remove any residual drug at the application site, and allowed back to the cage. The gavage and application tests are repeated daily until the group of blank has developed obvious hand-foot syndrome. […] Additionally, the thymidine derivative and the combination of thymidine derivative and uridine derivative were orally administered for observing the relief of the hand-foot syndrome. In examples 41-48, thymidine derivative and/or uridine derivative were/was applied, and in examples 49-52, thymidine derivative and/or uridine derivative were/was administered orally.
Table 5 lists the combinations of animal experiments of capecitabine and thymidine derivative (or a combination of thymidine derivative and uridine derivative) and the corresponding experimental results (wherein the data in the column of control rate=the occurrence rate of hand-foot syndrome in group of blank—the occurrence rate of hand-foot syndrome in group of administration).
The effect of thymidine derivative or a combination of thymidine derivative and uridine derivative on a mouse model with chemotherapeutic drug (capecitabine)-induced hand-foot syndrome was tested according to the method in Examples 41-52. Wherein, the drugs were administered transdermally for Examples 119-120 and orally for Examples 121-123.
The test thymidine derivative or the combination of thymidine derivative and uridine derivative, as well as the final concentration of the test compounds were shown in Table 9. Table 9 lists the combinations of animal experiments of capecitabine and the thymidine derivative gel (or a compounded gel of thymidine derivative and uridine derivative) and the corresponding experimental results (wherein the data in the column of control rate=the occurrence rate of hand-foot syndrome in Group of blank—the occurrence rate of hand-foot syndrome in Group of administration).

Assay [2] deals with pain in capecitabine hand-foot syndrome rats. Nature of the assay: Pain of hand-foot syndrome, mechanical sensitivity in rats (von Frey). The format is in vivo, rat. The settings on record: capecitabine 4000 mg/kg hand-foot syndrome rats; thymidine derivative 3%. Here is the method: According to the method of Examples 91-115, after administration of a thymidine derivative (at a concentration of 3%) and co-administration of a thymidine derivative (at a concentration of 1%) with a uridine derivative (at a concentration of 3%) to rat hand-foot syndrome models constructed from 4000 mg/kg of capecitabine for a period of time, pain analysis was performed on the rats, and the pain assessment model was mechanical sensitivity in rats (von Frey). The experimental steps were as follows: first, the rats were allowed to adapt in the room for 1 hour, then the rats were placed in an observation box with a metal mesh floor, and the mice were allowed to stay in the box for 20 minutes to adapt to the experimental platform. Next, a von Frey device was used to detect paw pain by stimulating the surface of the rat's palm with specially designed cilia to detect the mechanical sensitivity of the animal at strength of 0.4 g, 0.8 g, 1.5 g, 2.5 g, 4 g, 8 g, 10 g and 20 g (IITC Life Science, Woodland Hills, 2390 series). […] The rat movement response was considered to be a vague response, in which case the stimulation experiment was repeated.

For assay [3], the system named is hand-foot syndrome caused by capecitabine in SD rats. Nature of the assay: Rat model of hand-foot syndrome caused by capecitabine, gel application. The format is in vivo. Conditions: rats, capecitabine 4000 mg/kg once daily, 40 days; for inhibition in vivo at 3 % / inhibition in vivo at 1 % / inhibition in vivo at 5 %: Rattus norvegicus, topical, 960 h. The gist of the method:
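Female SD rats (~200 g, n=10/group) were given daily oral capecitabine (castor oil/ethanol 1:1, diluted with PBS). Thymidine derivative gel, alone or combined with uridine derivative, or blank gel was applied to both hind paws for ~4 h daily until blank controls developed hand-foot syndrome. Control rate was blank incidence minus treated incidence; paws were also examined by HE and IHC.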

[4] abbreviates: read-out: Control Rate Forepaws.
[5] abbreviates: read-out: Control Rate Hindpaws.

Like-named read-outs stand apart in the source and are kept apart here.

As to `Cc1cn([C@H]2C[C@H](O)[C@@H](COC(=O)C(C)c3cccc(Oc4ccccc4)c3)O2)c(=O)[nH]c1=O` (stereo partly drawn) [T27, ((2R,3S, 5R)-3-hydroxyl-5-(5-methyl-2,4-dioxy-3,4-dihydropyrimidin-1(2H)-yl)tetrahydrofuran-2-yl)2-(3-phenoxyphenyl)propionate Methyl], the “Control Rate Forepaws” value in assay [1] (transdermal 1% (wt %)) was found to be 50%; in assay [1] (transdermal 3% (wt %)), 42.86%; in assay [3] (gel 0.10 wt%), 22.22%; in assay [3] (gel 0.50 wt%) it was 33.33%; in assay [3] (gel 1 wt%), 25%; in assay [3] (gel 3 wt%) it was 57.14%. Also, in assay [3] (gel 5 wt%), the “Control Rate Forepaws” value was determined as 50%. For the same molecule, the “Control Rate Hindpaws” value in assay [1] (transdermal 1% (wt %)) is listed as 62.50%; in assay [1] (transdermal 3% (wt %)), 71.43%; in assay [3] (gel 0.10 wt%) it was 44.44%; in assay [3] (gel 0.50 wt%) it was 33.33%; in assay [3] (gel 1 wt%) it was 50%; in assay [3] (gel 3 wt%), 71.43%. For the same molecule, in assay [3] (gel 5 wt%), the “Control Rate Hindpaws” value is 75.00%. In addition, in assay [2], the “pain in rats (von Frey mechanical sensitivity)” value (“pain in rats” for short) is “could significantly improve pain in rats”.

In the case of `Cc1cn([C@H]2C[C@H](O)[C@@H](COC(=O)[C@H](C)c3ccc(CC(C)C)cc3)O2)c(=O)[nH]c1=O` [T32], the inhibition in vivo at 300 mg/kg in assay [1] (setting [4]) amounted to 71.4%; in assay [1] (setting [5]), 57.1%. In addition, the “pain in rats” value in assay [2] was “could significantly improve pain in rats”. Further, the inhibition in vivo at 3 % in assay [3] (gel 3 wt%, read-out: Control Rate Forepaws) was found to be 37.5%; in assay [3] (gel 3 wt%, read-out: Control Rate Hindpaws) it was 62.5%.

On to `Cc1ccc(C(=O)c2ccc(CC(=O)O[C@H]3C[C@H](n4cc(C)c(=O)[nH]c4=O)O[C@@H]3CO)n2C)cc1` [T45], for which the inhibition in vivo at 250 mg/kg is 57.1% in assay [1] (setting [4]) and 42.9% in assay [1] (setting [5]). Further, the “pain in rats” value in assay [2] was “could significantly improve pain in rats”. In addition, the inhibition in vivo at 1 % in assay [3] (gel 1 wt%, read-out: Control Rate Forepaws) came to 25%; in assay [3] (gel 1 wt%, read-out: Control Rate Hindpaws), 37.5%. For the same molecule, the inhibition in vivo at 5 % in assay [3] (gel 5 wt%, read-out: Control Rate Forepaws) came to 55.6%; in assay [3] (gel 5 wt%, read-out: Control Rate Hindpaws) it was 77.8%.

These data come from patent US20230405003A1, “APPLICATION OF THYMIDINE DERIVATIVE IN PREPARATION OF DRUGS” (ONQUALITY PHARMACEUTICALS CHINA LTD., priority 2020, published 2023).
